Test: xn = mol fraction of the nth substance listed
Conditions: 100 kPa, Liquid; for speed of sound: Frequency=5 MHz, Pulse-echo method; for mass density: Vibrating tube method

OCCCCCO [1,5-pentanediol] + O
Conditions	mass density [kg/m3]	speed of sound [m/s]
308.15 K, x1 = 0.005	993.57	–
308.15 K, x1 = 0.0101	993.45	–
308.15 K, x1 = 0.0196	993.6	–
308.15 K, x1 = 0.0251	993.93	–
308.15 K, x1 = 0.0304	994.32	–
308.15 K, x1 = 0.05	995.28	–
308.15 K, x1 = 0.0769	995.98	–
308.15 K, x1 = 0.0798	–	1647
308.15 K, x1 = 0.0835	–	1649.2
308.15 K, x1 = 0.0879	–	1651.5
308.15 K, x1 = 0.0918	–	1653.4
308.15 K, x1 = 0.0964	–	1655.5
308.15 K, x1 = 0.1002	996.54	1657
308.15 K, x1 = 0.106	–	1659
308.15 K, x1 = 0.1116	–	1660.7
308.15 K, x1 = 0.1172	–	1662.1
308.15 K, x1 = 0.1233	–	1663.4
308.15 K, x1 = 0.131	–	1664.8
308.15 K, x1 = 0.1377	–	1665.7
308.15 K, x1 = 0.1435	–	1666.3
308.15 K, x1 = 0.1438	996.71	–
308.15 K, x1 = 0.1514	–	1666.9
308.15 K, x1 = 0.161	–	1667.4
308.15 K, x1 = 0.1675	–	1667.5
308.15 K, x1 = 0.1737	–	1667.6
308.15 K, x1 = 0.1787	–	1667.6
308.15 K, x1 = 0.1838	–	1667.5
308.15 K, x1 = 0.1845	996.26	–
308.15 K, x1 = 0.1893	–	1667.4
308.15 K, x1 = 0.1953	–	1667.2
308.15 K, x1 = 0.2011	–	1667
308.15 K, x1 = 0.2239	–	1665.8
308.15 K, x1 = 0.2306	–	1665.4
308.15 K, x1 = 0.2378	–	1664.9
308.15 K, x1 = 0.2491	–	1664
308.15 K, x1 = 0.2503	995.17	–
308.15 K, x1 = 0.2581	–	1663.3
308.15 K, x1 = 0.2683	–	1662.5
308.15 K, x1 = 0.2832	–	1661.2
308.15 K, x1 = 0.3	994.06	–
308.15 K, x1 = 0.3005	–	1659.5
308.15 K, x1 = 0.3223	–	1657.4
308.15 K, x1 = 0.3343	993.37	–
308.15 K, x1 = 0.3402	–	1655.5
308.15 K, x1 = 0.3515	–	1654.3
308.15 K, x1 = 0.3735	–	1651.8
308.15 K, x1 = 0.3924	–	1649.6
308.15 K, x1 = 0.4062	–	1647.9
308.15 K, x1 = 0.4171	991.68	–
308.15 K, x1 = 0.4304	–	1644.9
308.15 K, x1 = 0.4462	–	1642.8
308.15 K, x1 = 0.454	990.78	–
308.15 K, x1 = 0.4661	–	1640.2
308.15 K, x1 = 0.4803	–	1638.3
308.15 K, x1 = 0.4957	–	1636.1
308.15 K, x1 = 0.5003	989.8	–
308.15 K, x1 = 0.5119	–	1633.9
308.15 K, x1 = 0.5238	–	1632.2
308.15 K, x1 = 0.5362	989.1	–
308.15 K, x1 = 0.5406	–	1629.8
308.15 K, x1 = 0.5482	–	1628.7
308.15 K, x1 = 0.5622	–	1626.7
308.15 K, x1 = 0.5848	–	1623.5
308.15 K, x1 = 0.6035	–	1620.8
308.15 K, x1 = 0.6177	987.6	–
308.15 K, x1 = 0.6216	–	1618.2
308.15 K, x1 = 0.6446	–	1615
308.15 K, x1 = 0.6478	987	–
308.15 K, x1 = 0.6646	–	1612.2
308.15 K, x1 = 0.6864	–	1609.3
308.15 K, x1 = 0.7025	986.1	–
308.15 K, x1 = 0.7086	–	1606.4
308.15 K, x1 = 0.7293	–	1603.7
308.15 K, x1 = 0.7497	–	1601.1
308.15 K, x1 = 0.7504	985.3	–
308.15 K, x1 = 0.7689	–	1598.8
308.15 K, x1 = 0.7904	–	1596.2
308.15 K, x1 = 0.7927	984.6	–
308.15 K, x1 = 0.8099	–	1593.9
308.15 K, x1 = 0.8308	–	1591.5
308.15 K, x1 = 0.8561	–	1588.6
308.15 K, x1 = 0.8605	983.4	–
308.15 K, x1 = 0.8812	–	1585.8
308.15 K, x1 = 0.9004	982.7	–
308.15 K, x1 = 0.9098	–	1582.5
308.15 K, x1 = 0.9326	–	1579.9
308.15 K, x1 = 0.9496	981.7	–
308.15 K, x1 = 0.9519	–	1577.5
308.15 K, x1 = 0.9707	–	1575.2
308.15 K, x1 = 0.9812	–	1573.8
308.15 K, x1 = 0.9864	–	1573.2
308.15 K, x1 = 0.9944	–	1572.1
308.15 K, x1 = 1	980.7	1571.3
313.15 K, x1 = 0.0002	–	1529.3
313.15 K, x1 = 0.0004	–	1529.9
313.15 K, x1 = 0.0006	–	1530.6
313.15 K, x1 = 0.0009	–	1531.5
313.15 K, x1 = 0.0013	–	1532.4
313.15 K, x1 = 0.0016	–	1533.4
313.15 K, x1 = 0.002	–	1534.5
313.15 K, x1 = 0.0025	–	1535.9
313.15 K, x1 = 0.0032	–	1537.6
313.15 K, x1 = 0.0039	–	1539.6
313.15 K, x1 = 0.0045	–	1541.2
313.15 K, x1 = 0.0052	–	1542.9
313.15 K, x1 = 0.0058	–	1544.6
313.15 K, x1 = 0.0065	–	1546.5
313.15 K, x1 = 0.0073	–	1548.3
313.15 K, x1 = 0.0081	–	1550.4
313.15 K, x1 = 0.0088	–	1552.1
313.15 K, x1 = 0.0097	–	1554.2
313.15 K, x1 = 0.0107	–	1556.6
313.15 K, x1 = 0.0118	–	1559
313.15 K, x1 = 0.013	–	1561.7
313.15 K, x1 = 0.0142	–	1564.4
313.15 K, x1 = 0.0153	–	1566.8
313.15 K, x1 = 0.0164	–	1569.2
313.15 K, x1 = 0.0176	–	1571.6
313.15 K, x1 = 0.0187	–	1573.8
313.15 K, x1 = 0.02	–	1576.4
313.15 K, x1 = 0.0214	–	1579
313.15 K, x1 = 0.0227	–	1581.5
313.15 K, x1 = 0.0243	–	1584.4
313.15 K, x1 = 0.0259	–	1587.2
313.15 K, x1 = 0.0276	–	1590
313.15 K, x1 = 0.0293	–	1592.8
313.15 K, x1 = 0.0308	–	1595.3
313.15 K, x1 = 0.0322	–	1597.4
313.15 K, x1 = 0.0341	–	1600.2
313.15 K, x1 = 0.036	–	1602.9
313.15 K, x1 = 0.0378	–	1605.4
313.15 K, x1 = 0.0395	–	1607.7
313.15 K, x1 = 0.0417	–	1610.5
313.15 K, x1 = 0.0441	–	1613.4
313.15 K, x1 = 0.0462	–	1615.8
313.15 K, x1 = 0.0486	–	1618.4
313.15 K, x1 = 0.0505	–	1620.4
313.15 K, x1 = 0.0522	–	1622.1
313.15 K, x1 = 0.0542	–	1624.1
313.15 K, x1 = 0.0571	–	1626.6
313.15 K, x1 = 0.0588	–	1628.1
313.15 K, x1 = 0.0608	–	1629.8
313.15 K, x1 = 0.0624	–	1631.2
313.15 K, x1 = 0.0648	–	1632.9
313.15 K, x1 = 0.0682	–	1635.4
313.15 K, x1 = 0.0705	–	1636.9
313.15 K, x1 = 0.0732	–	1638.6
313.15 K, x1 = 0.0767	–	1640.7
313.15 K, x1 = 0.0802	–	1642.6
313.15 K, x1 = 0.0837	–	1644.2
313.15 K, x1 = 0.0875	–	1646
313.15 K, x1 = 0.0918	–	1647.7
313.15 K, x1 = 0.0975	–	1649.7
313.15 K, x1 = 0.1013	–	1650.9
313.15 K, x1 = 0.106	–	1652.2
313.15 K, x1 = 0.1096	–	1653

Reference: the NIST ThermoML archive (doi:10.1016/j.jct.2017.06.001)
